Reference: paper PMC6630910 (Pharmaceuticals, 2019)

Experiments:
[1] = target: P-I type metalloproteinase Batx-I (Bothrops atrox, UniProt P0DJE1); experiment: biochemical
PLA2 from snake venoms = details: same methodology as this paper; read-out: IC50 (PLA2 inhibition); cited from earlier work

P-I type metalloproteinase Batx-I, sequence (P0DJE1 whole entry, looked up): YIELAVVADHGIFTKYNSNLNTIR

Compound	melting point	activity at 2000 µM ([1]; read-out: Batx-I proteolytic activity still observed)	IC50 [1]	IC50 (PLA2 from snake venoms)
CCOC(=O)CSC(=O)c1ccc(Cl)cc1 [Compound I, Ethyl 2-((4-chlorobenzoyl)thio)acetate]	55.6 °C	70%	–	–
CCOC(=O)CSC(=O)c1cccc([N+](=O)[O-])c1 [II, Ethyl 2-((3-nitrobenzoyl)thio)acetate]	44.5 °C	–	2770 µM	–
CCOC(=O)CSC(=O)c1ccc([N+](=O)[O-])cc1 [III, Ethyl 2-((4-nitrobenzoyl)thio)acetate]	56.2 °C	–	1880 µM	–
O=C1c2c(O)cc(O)cc2O[C@H](c2ccc(O)cc2)[C@H]1c1c(O)cc(O)c2c(=O)cc(-c3ccc(O)c(O)c3)oc12 [Morelloflavone]	–	–	–	380 µM
COc1cc(O)c2c(c1)O[C@H](c1ccccc1)CC2=O [Pinostrobin]	–	–	–	1850 µM
